According to patent publication US9629872B2, “Sodium thiosulphate for the treatment of ectopic calcifications” (Institut National de la Sante et de la Recherche Medicale …, priority 2012, dated 2017):

Tests used:
dystrophic calcification = conditions: cited from earlier work
[1] = injectable solution of 0.15 g/mL with sodium phosphate dodecahydrate 1.21%, packaged in an ampoule; cited from earlier work
[2] = system: ossifications (ankle region and popliteal fossa area); test: Topical treatment of a child with progressive osseous heteroplasia (Example 3); format: in vivo, human; conditions: before the topical treatment; given with non steroidal anti-inflammatory medications
Method: A child, weighing 27 kg, suffering from progressive osseous heteroplasia presented with significant ossifications that were responsible for a limitation of function in the right foot: in the ankle region, with an estimated surface area of 10 cm×5 cm, and in the popliteal fossa area with 2 patches, having an estimated surface area of 6 cm×4 cm each.
These exploratory tests were carried out in addition to the usual checkup including the exploration of renal function and liver function, as well as calcium and phosphate checkup.

Compound: O=S([O-])([O-])=S.[Na+].[Na+] [sodium thiosulfate]
- superficial calcifications (dystrophic calcification; after six months, 10% compresses twice a week, with topical corticosteroid, acetic acid compresses and oral antibiotics): dissolved
- pains (dystrophic calcification; after six months, 10% compresses, combined treatment): progressively abated
- re-epithelialisation over the wound regions (dystrophic calcification; three months later (after the first six months)): almost complete re-epithelialisation
- stability [1]: 3 years

Compound: CC(O)(P(=O)(O)O)P(=O)(O)O [disodium etidronate]
- improvement under earlier treatment [2]: No improvement
